Experimental data as given in US20030203966A1, “Nitromethylthiobenzene derivatives as aldose reductase inhihibitors” (priority 1996, published 2003).

Experiments:
aldose reductase = molecular target: T1, aldose reductase (Rattus norvegicus, UniProt P07943); test: In vitro study: inhibition of aldose reductase; assay type: biochemical, male Wistar rats (lenses); conditions: enzyme from rat lenses; NADPH, L-glyceraldehyde; spectrophotometry at 340 nm
T1 construct: The aldose reductase used is obtained from the lenses of male Wistar rats; from tissue; host or cells: lenses of male Wistar rats
Method: 1) In vitro study: inhibition of aldose reductase
The aldose reductase used is obtained from the lenses of male Wistar rats according to a modification of the method by S. Hayman et al. (Journal of Biological Chemistry 240, p. 877, 1965). The enzymatic extract is diluted in a phosphate buffer in the presence of NADPH and various concentrations of the test products. The reaction is triggered with L-glyceraldehyde and the rate of reaction is measured by monitoring the disappearance of the NADPH by spectrophotometry at 340 nm. The rate of reaction is calculated for each concentration of products, and the concentration required for a 50% reduction in the rate of reaction (IC50) is then evaluated by linear interpolation.

[1] = tested on: level of sorbitol in the sciatic nerves; test: In vivo study: reduction of the accumulation of sorbitol; parameters: species or system male Wistar rats; conditions: Rattus norvegicus, po; 5 mg/kg/day p.o.; streptozotocin-diabetic rats; sciatic nerve sorbitol, relative to diabetic and non-diabetic animals; read-out: Protection against the increase in sorbitol (%) (5 mg/kg/day p.o.)
Method: 2) In vivo study: reduction of the accumulation of sorbitol
Male Wistar rats weighing from 200 to 250 g are made diabetic by intravenous injection of streptozotocin (60 mg/kg). They then receive an oral treatment of the test products, in the form of a suspension, 4 hours, 30 hours and 52 hours after the injection of streptozotocin. 18 hours after the final oral treatment, the rats are sacrificed and decapitated and their sciatic nerves are then removed. After extraction, the level of sorbitol in the nerves is measured, according to the enzymatic method described by H. J. Bergmeyer (Methods of enzymatic analysis, H. U. Bergmeyer ed., Academic Press New York 3, p. 1323, 1974). The percentage of protection is calculated for each product relative to the batch of diabetic animals, taking into account the level of sorbitol in the sciatic nerves of non-diabetic rats.

Row | SMILES | IC50 (aldose reductase) | melting point | inhibition in vivo at 5 mg/kg [1]
1 | Cc1cc(NS(=O)(=O)c2ccccc2)cc(C)c1S(=O)(=O)C[N+](=O)[O-] [Example 1] | 8 nM | 129 to 131 °C | 65%
2 | Cc1cc(NS(=O)(=O)c2ccc(F)c(F)c2)cc(C)c1S(=O)(=O)C[N+](=O)[O-] [Example 10, 3,4-Difluoro-N-[3,5-dimethyl-4-[(nitromethyl)sulphonyl]phenyl]benzenesulphonamide] | 7 nM | 158 to 160 °C | 66%
3 | Cc1cc(NS(=O)(=O)c2cccc(Br)c2)cc(C)c1S(=O)(=O)C[N+](=O)[O-] [Example 13, 3-Bromo-N-[3,5-dimethyl-4-[(nitromethyl)sulphonyl]-phenyl]benzenesulphonamide] | 8 nM | 156 to 158 °C | 70%
4 | Cc1cc(NS(=O)(=O)c2ccccc2C(F)(F)F)cc(C)c1S(=O)(=O)C[N+](=O)[O-] [Example 14, N-[3,5-Dimethyl-4-[(nitromethyl)sulphonyl]phenyl]-2-(trifluoromethyl)benzenesulphonamide] | 7 nM | 171 to 173 °C | 70%
5 | Cc1cc(NS(=O)(=O)c2ccc(F)cc2)cc(C)c1S(=O)(=O)C[N+](=O)[O-] [Example 24, N-[3,5-Dimethyl-4-[(nitromethyl)sulphonyl]phenyl]-4-fluorobenzenesulphonamide] | 8 nM | 152 to 154 °C | 80%
6 | Cc1cc(NS(=O)(=O)c2cccc(F)c2)cc(C)c1S(=O)(=O)C[N+](=O)[O-] [Example 25, N-[3,5-Dimethyl-4-[(nitromethyl)sulphonyl]phenyl]-3-fluorobenzenesulphonamide] | 7 nM | 135 to 137 °C | 85%
7 | Cc1cc(NS(=O)(=O)Cc2ccccc2)cc(C)c1S(=O)(=O)C[N+](=O)[O-] [Example 26, N-[3,5-Dimethyl-4-[(nitromethyl)sulphonyl]phenyl]-phenylmethanesulphonamide] | 6 nM | 124 to 126 °C | 104%
8 | Cc1cc(NS(=O)(=O)c2cccc(F)c2F)cc(C)c1S(=O)(=O)C[N+](=O)[O-] [Example 29, 2,3-Difluoro-N-[3,5-dimethyl-4-[(nitromethyl)sulphonyl]phenyl]benzenesulphonamide] | 7 nM | 166 to 168 °C | 71%
9 | Cc1cc(NS(=O)(=O)c2cc(F)cc(F)c2)cc(C)c1S(=O)(=O)C[N+](=O)[O-] [Example 30, 3,5-Difluoro-N-[3,5-dimethyl-4-[(nitromethyl)sulphonyl]phenyl]benzenesulphonamide] | 8 nM | 187 to 190 °C | 87%
10 | Cc1cc(NS(=O)(=O)c2ccccc2F)cc(C)c1S(=O)(=O)C[N+](=O)[O-] [Example 34, N-[3,5-Dimethyl-4-[(nitromethyl)sulphonyl]phenyl]-2-fluorobenzenesulphonamide] | 9 nM | 175 to 177 °C | 69%
11 | Cc1cc(NS(=O)(=O)c2ccc(C(F)(F)F)cc2)cc(C)c1S(=O)(=O)C[N+](=O)[O-] [Example 35, N-[3,5-Dimethyl-4-[(nitromethyl)sulphonyl]phenyl]-4-(trifluoromethyl)benzenesulphonamide] |  | 187 to 188 °C | 
12 | Cc1cc(NS(=O)(=O)c2ccc(OC(F)(F)F)cc2)cc(C)c1S(=O)(=O)C[N+](=O)[O-] [Example 36, N-[3,5-Dimethyl-4-[(nitromethyl)sulphonyl]phenyl]-4-(trifluoromethoxy)benzenesulphonamide] |  | 180 to 182 °C | 
13 | Cc1cc(NS(=O)(=O)c2c(F)c(F)c(F)c(F)c2F)cc(C)c1S(=O)(=O)C[N+](=O)[O-] [Example 37, N-[3,5-Dimethyl-4-[(nitromethyl)sulphonyl]phenyl]-2,3,4,5,6-pentafluorobenzenesulphonamide] |  | 128 to 130 °C | 
14 | Cc1cc(NS(=O)(=O)c2ccc3oc4ccccc4c3c2)cc(C)c1S(=O)(=O)C[N+](=O)[O-] [Example 38, N-[3,5-Dimethyl-4-[(nitromethyl)sulphonyl]phenyl]-2-dibenzofuransulphonamide] |  | 214 to 215 °C (dec.) | 
15 | Cc1cc(NS(=O)(=O)c2ccc(-c3ccccc3)cc2)cc(C)c1S(=O)(=O)C[N+](=O)[O-] [Example 39, N-[3,5-Dimethyl-4-[(nitromethyl)sulphonyl]phenyl]-4-biphenylsulphonamide] |  | 206 to 208 °C (dec.) | 
16 | CC(=O)Nc1ccc(S(=O)(=O)Nc2cc(C)c(S(=O)(=O)C[N+](=O)[O-])c(C)c2)cc1Cl [Example 43, N-[2-Chloro-4-[3,5-dimethyl-4-[(nitromethyl)sulphonyl]-phenylsulphamoyl]phenyl]acetamide] |  | 209 to 211 °C | 
17 | Cc1ccccc1S(=O)(=O)Nc1cc(C)c(S(=O)(=O)C[N+](=O)[O-])c(C)c1 [Example 45, N-[3,5-Dimethyl-4-[(nitromethyl)sulphonyl]phenyl]-2-methylbenzenesulphonamide] |  | 118 to 120 °C | 

Continued, in another order:

Row | IC50 (aldose reductase) | melting point | SMILES | inhibition in vivo at 5 mg/kg [1]
18 |  | 166 to 168 °C | COc1cccc(S(=O)(=O)Nc2cc(C)c(S(=O)(=O)C[N+](=O)[O-])c(C)c2)c1 [Example 46, N-[3,5-Dimethyl-4-[(nitromethyl)sulphonyl]phenyl]-3-methoxybenzenesulphonamide] | 
19 |  | 191 to 192 °C | Cc1cc(NS(=O)(=O)c2cccnc2)cc(C)c1S(=O)(=O)C[N+](=O)[O-] [Example 47, N-[3,5-Dimethyl-4-[(nitromethyl)sulphonyl]phenyl]-3-pyridinesulphonamide] | 
20 |  | 146 to 148 °C | Cc1cc(NS(=O)(=O)Cc2ccccc2C(F)(F)F)cc(C)c1S(=O)(=O)C[N+](=O)[O-] [Example 48, N-[3,5-Dimethyl-4-[(nitromethyl)sulphonyl]phenyl]-(2-trifluoromethylphenyl)methanesulphonamide] | 
21 |  | 108 to 110 °C | CC(=O)Nc1cccc(S(=O)(=O)Nc2cc(C)c(S(=O)(=O)C[N+](=O)[O-])c(C)c2)c1 [Example 50, N-[3[[3,5-Dimethyl-4-[(nitromethyl)sulphonyl]phenylamino]sulphonyl]phenyl]acetamide] | 
22 |  | 167 to 169 °C | Cc1ccccc1CS(=O)(=O)Nc1cc(C)c(S(=O)(=O)C[N+](=O)[O-])c(C)c1 [Example 51, N-[3,5-Dimethyl-4-[(nitromethyl)sulphonyl]phenyl]-(2-methylphenyl)methanesulphonamide] | 
23 |  | 152 to 154 °C | Cc1cc(NS(=O)(=O)Cc2ccc(Br)cc2F)cc(C)c1S(=O)(=O)C[N+](=O)[O-] [Example 52, 4-Bromo-N-[3,5-dimethyl-4-[(nitromethyl)sulphonyl]-phenyl]-(2-fluorophenyl)methanesulphonamide] | 
24 |  | 126 to 128 °C | Cc1cc(NS(=O)(=O)CC2CCCCC2)cc(C)c1S(=O)(=O)C[N+](=O)[O-] [Example 53, N-[3,5-Dimethyl-4-[(nitromethyl)sulphonyl]phenyl]-cyclohexylmethanesulphonamide] | 
